Laboratory results: patent publication EP0298890A2, “New 2-(P-isobutylphenyl)-propionic acid ester and process for the preparation thereof” (Sune Coma, Nuria, priority 1987, dated 1989)

What was measured:
rat [1] = experiment: phenylbenzoquinone test p.o. in the rat (analgesic effect); assay type: in vivo; settings: comparison of ED₅₀ values
rat [2] = experiment: carrageenin test p.o. in the rat (antiinflammatory effect); assay type: in vivo; settings: comparison of ED₅₀ values
solubility in water = assay type: physicochemical; settings: qualitative statement, no method given

solubility in water compared with the formula II acid (solubility in water): more soluble in water
SMILES: CC(C)Cc1ccc(C(C)C(=O)OCCN(C)C)cc1 (stereo not drawn) [I, N,N-dimethylaminoethanol 2-(p-isobutylphenyl)-propionate]
analgesic activity compared with the formula II compound (rat [1]): twice as active as an analgesic
antiinflammatory activity compared with the formula II compound (rat [2]): same antiinflammatory activity
